Entries after “also recorded” stand apart in the source; their conditions may differ.
Assays:
[1] = test system: HDAC6; experiment: On-target alpha-tubulin acetylation in treated nTregs; format: cell-based, human; conditions: compared to DMSO
Description: (§1) FIG. 1A show purified, human Tregs stimulated by allogeneic, monocyte-derived dendritic cells for 5-6 days, with HDTK032 or DMSO added once on day 0. The medium was also supplemented with IL-2 and IL-15. […] Proliferation was analyzed by Cell Trace Violet dilution among CD4^+, CD127^−, CD25^bright Tregs. […] FIG. 1C is a graph showing on-target alpha-tubulin acetylation of HDTK032 or DMSO treated Tregs. One representative experiment of 3 independent studies is shown. […] One representative donor Treg expansion of 4 independent experiments is shown. *P<0.05.
(§2) HDAC6-deficient mice are known to generate increased amounts of Tregs, both at stead-state in vivo and after polyclonal stimulation in vitro. However, such findings have never been translated to human immunity. Human nTregs (CD4^+, CD127^−, CD25+) were purified by magnetic bead isolation, stimulated with allogeneic moDCs, supplemented with IL-2, and treated with HDTK032, a selective and potent HDAC6 inhibitor, or DMSO (<0.01%) vehicle control once on day 0. After 5-6 days of culture, the nTregs were harvested and enumerated. […] Using the limiting dilution assay (LDA) we measured the precise frequency of allo-specific nTregs after stimulation with unrelated moDCs for 12 days. For these experiments, the HDAC6 inhibitors, HDTK032 and tubastatin, were compared against DMSO. […]

[2] = test system: human nTregs (CD4+, CD127-, CD25+); experiment: Treg proliferation and expansion after stimulation with allogeneic moDCs, 5-6 days; format: cell-based; conditions: drug added once on day 0, compared to DMSO
Description: as §1, §2

[3] = test system: NSG mice with human skin xenograft; experiment: Human skin xenograft rejection model with adoptive transfer of pre-treated Tregs; format: in vivo; conditions: day +21; 5x10^4 nTregs expanded ex vivo with drug (tubastatin 1 μM, HDTK032 2.5 μM); no systemic drug; compared to PBMCs alone
Description: NSG mice received a 1 cm^2 split thickness human skin graft. After 30 days of rest to permit engraftment, 5×10^6 human PBMCs (allogeneic to the skin) were injected into the mice. A week prior to PBMC injection, Tregs from the PBMC donor were expanded with mature DCs from the skin donor (Treg:DC ratio 30:1) and cultured for 5-6 days in the presence of DMSO (<0.1%), tubastatin (1 μM), HDTK032 (2.5 μM). In coordination with the PBMC injection, recipient mice were also inoculated with CD25-bead purified, Tregs (5×10^4) expanded with DMSO, tubastatin, HDTK032. A control group received PBMCs alone. FIG. 3A contains representative contour plots showing the purity (>95% pure) of the injected Tregs (CD4^+, CD127^−, CD25^bright, Foxp3+) for each experimental condition. […] Pooled data from 3 independent experiments, with up to 9 mice per experimental group. […]
FIGS. 5A to 5D show pathogenic Th17 cells are decreased in the periphery among mice treated with HDAC6-inhibited human Tregs. […] Recipient spleens were harvested on day +21, stained for Th17s (CD4^+, IL-17^+) or Tregs (CD4^+, CD127^−, CD25^bright, Foxp3^+), and analyzed by flow cytometry. […]
FIGS. 6A to 6C show circulating human Th1 cells are reduced after adoptive transfer of HDAC6-inhibited Tregs. […] Recipient spleens were harvested on day +21, stained for Th1s (CD4^+, IFNγ^+) or Th2s (CD4^+, IL-4^+), and analyzed by flow cytometry. […]

[4] = test system: allo-specific nTregs; experiment: Limiting dilution assay (LDA), frequency of allo-specific nTregs after 12 days with allogeneic moDCs; format: cell-based, human; conditions: for mean fold expansion of allo-specific nTregs: 12 days with unrelated moDCs, compared to DMSO; for frequency of antigen-specific thymic Tregs: after 12 days of culture with allogeneic moDCs
Description: as §1
HDAC6-deficient mice are known to generate increased amounts of Tregs, both at stead-state in vivo and after polyclonal stimulation in vitro. However, such findings have never been translated to human immunity. Human nTregs (CD4^+, CD127^−, CD25+) were purified by magnetic bead isolation, stimulated with allogeneic moDCs, supplemented with IL-2, and treated with HDTK032, a selective and potent HDAC6 inhibitor, or DMSO (<0.01%) vehicle control once on day 0. After 5-6 days of culture, the nTregs were harvested and enumerated. […] Using the limiting dilution assay (LDA) we measured the precise frequency of allo-specific nTregs after stimulation with unrelated moDCs for 12 days. For these experiments, the HDAC6 inhibitors, HDTK032 and tubastatin, were compared against DMSO. Overall, the mean fold expansion was approximately 130-fold with either HDAC6 inhibitor compared to DMSO (FIG. 1D).

[5] = test system: T cell responders stimulated by allogeneic DCs; experiment: Suppression assay of pre-treated nTregs in mixed leukocyte reactions; format: cell-based, human; conditions: nTregs exposed to drug for 5 days; nTreg:T cell ratio 1:500 or 1:50; no drug in secondary culture; compared to DMSO-treated nTregs
Description: The suppressive capacity of DC-allostimulated thymic Tregs previously exposed to HDTK032, tubastatin, or DMSO was tested at different ratios of Treg to T cell responders stimulated by fresh allogeneic DCs (DC:responder T cell ratio of 1:30) in mixed leukocyte reactions. No additional drugs or DMSO were added to the medium. […] Data are from one representative experiment of 3 independent studies performed.
Next we investigated whether HDAC6 blockade impacted nTreg function. Purified nTregs were stimulated with allogeneic moDCs plus IL-2 while exposed to tubastatin, HDTK032, or DMSO for 5 days. The nTregs were harvested and cultured with autologous T cells (nTreg:T cell ratio 1:500 or 1:50) targeting fresh allogeneic moDCs. No additional drugs were added to the secondary cultures.

[6] = test system: autologous T responders; experiment: Suppression assay of treated antigen-specific nTreg with 10:1 autologous T responders and allogeneic DCs; format: cell-based; conditions: 10:1 autologous T responders; proliferation measured on day +6; compared to DMSO
From the text: Suppression assay of DMSO- or HDAC-treated, antigen-specific nTreg in culture with 10:1 autologous T responders and allogeneic DCs. Proliferation measured on day +6. […] PAN=Panobinostat, NEXT=Nexturastat-B, TUBA=Tubastatin. DMSO is vehicle control.

[7] = test system: antigen-specific nTreg; experiment: Proliferation of antigen-specific nTreg with allogeneic DC, IL-2 and IL-15 (CPM, day +6); format: cell-based; conditions: drugs added once on day 0; CPM on day +6
From the text: Purified nTreg+allogeneic dendritic cells (DC)+IL-2+IL-15. Drugs added once on day 0. Proliferation measured as CPM on day +6.

Row | Structure (SMILES) | amount of acetylated α-tubulin [1] | proliferative capacity of nTregs (CellTrace Violet dilution) ([2]; 5-6 days) | amount of nTregs ([2]; after 5-6 days of culture) | skin graft rejection [3] | mean fold expansion of allo-specific nTregs [4] | frequency of antigen-specific thymic Tregs [4] | suppressive potency of pre-treated nTregs [5] | suppressive function of nTreg [6] | proliferation and expansion of antigen-specific nTreg [7]
1 | O=C(NO)c1ccc2c(c1)OC[C@H](c1ccccc1)N(C(=O)C1CCOCC1)C2 [HDTK032, (3S)—N-hydroxy-4-(oxane-4-carbonyl)-3-phenyl-2,3,4,5-tetrahydro-1,4-benzoxazepine-8-carboxamide] | increase | increased | significantly increased; also recorded: increases | significantly reduced | approximately 130 fold | increase | significantly more potent | – | –
2 | CCCCN(Cc1ccc(C(=O)NO)cc1)C(=O)Nc1ccc2cn[nH]c2c1 [Nexturastat-B, Nexturastat B] | – | – | – | – | – | – | – | significantly increase | –
3 | CN1CCc2c(c3ccccc3n2Cc2ccc(C(=O)NO)cc2)C1 [Tubastatin A, reference compound] | – | – | – | significantly reduced | approximately 130 fold | increase | significantly more potent | significantly increase | significantly enhance

Source: patent US12636278B2, “HDAC6-inhibited human regulatory T cells” (H. LEE MOFFITT CANCER CENTER AND RESEARCH INSTITUTE, INC., priority 2020, dated 2026)
